Drawing on the METLIN SMRT retention time set (Domingo-Almenara et al. 2019), this text covers RP-LC retention time for 80 compounds.

This data set in a line: gradient 5% acetonitrile 3 min, to 50% in 2 min, to 85% in 15 min, held 3 min, 100 µL/min. The following applies: column: Zorbax Extend-C18 2.1 x 50 mm; eluents: water / acetonitrile, 0.1% formic acid. The essentials:
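Mixtures of ~100 pure standards were chromatographed on a Zorbax Extend-C18 column (2.1 × 50 mm, 1.8 μm) at 100 μL/min using water and acetonitrile, each with 0.1% formic acid. Detection used a quadrupole time-of-flight mass spectrometer in positive and negative ionization mode, and data collection spanned 3 months. Retention time was obtained from adduct peaks picked computationally and each checked manually.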
Take `Cc1nn(-c2ccc(N3CCCC3)nn2)c(C)c1CCC(=O)N1CCN(c2ncccn2)CC1`: the RP-LC retention time stood at 605 s.
Compound `CCOc1ccc(NC(=O)Cn2cnc3nc(N4CCCC(C(=O)NC)C4)sc3c2=O)cc1` (stereo not given) had an RP-LC retention time of 666 s.
With `Cc1ccc(NC(=O)N2CCCC2c2nc(-c3cccc(F)c3)no2)c(C)c1` (stereo not given), the RP-LC retention time was 1030 s.
As to `CN(C)c1ccc(CNC(=O)Cn2nc(C(=O)N3CCCC3)c3ccccc32)cc1`, the RP-LC retention time was 612 s.
The same measure for `COC(=O)c1sccc1NC(=O)N1CCCC1c1nc(-c2cccc(Cl)c2)no1` (stereo not given): 1220 s; for `O=C(c1cccs1)N1CCC(c2nncn2-c2ccccc2)CC1`: 626 s.
Compound `Cc1ccc(NC(=O)c2sc(-c3cn(C)c4ncccc34)nc2C)cc1F` registered an RP-LC retention time of 1000 s.
For the compound `CC(C)NC(=O)c1ccc(OCC2CCN(C(=O)c3cc(F)ccc3F)CC2)cc1`, the RP-LC retention time turned out to be 850 s.
In the case of `COc1ccccc1-c1csc(NC(=O)c2sc(COc3ccc(Cl)c(C)c3)nc2C)n1`, the RP-LC retention time stood at 1360 s.
For `CN(C)c1cccc(C(=O)N2CCN(c3cc(-c4ccccc4)[nH]n3)CC2)c1`, the RP-LC retention time was 690 s.
On to `Cn1cnc(S(=O)(=O)N2CCC(Oc3ccc(-c4noc(C5CC5)n4)cc3)C2)c1` (stereo not given), for which the RP-LC retention time was found to be 788 s.
The figure for `CCC(=O)Nc1cc2c(cc1S(=O)(=O)c1ccc(C)cc1)n(C)c(=O)n2C` is 767 s.
`O=C(c1noc2c1CCCC2)N1CCc2ccccc2C1` registered an RP-LC retention time of 923 s.
`CCc1ccc(NC(=O)N2CCc3c(c(-c4nc(C5CC5)no4)nn3C)C2)cc1`: the RP-LC retention time was 934 s.
The figure for `O=C(N[C@H]1C[C@@H]2C[C@H]1N(C(=O)NCc1cccc(F)c1)C2)c1cccs1` is 765 s.
Compound `O=C(N[C@@H]1CN(Cc2ccccc2)C[C@H]1CO)C1(c2ccccc2)CC1` returned an RP-LC retention time of 652 s.
The figure for `Cc1nc(CC(=O)Nc2ccc(F)c(F)c2)cs1` is 754 s; for `CC(C)c1nnc(C2CN(C(=O)c3cccn3C)CC23CCOCC3)o1` (stereo not given) it is 639 s.
`Cc1cccc(-n2ncc(C(N)=O)c2-n2cccc2)c1` showed an RP-LC retention time of 775 s.
`O=C1CC(C(=O)N2CCOCC2)CN1CCc1c[nH]c2ccc(Cl)cc12` (stereo not given) returned an RP-LC retention time of 677 s.
For `CN(C)C(=O)c1ccc2c(c1)N(CC(=O)N1CCN(c3ccccc3)CC1)C(=O)C1CCCCN21` (stereo not given), the RP-LC retention time is 778 s.
Take `CCCC(NC(=O)CCc1ccc(OC)cc1)C(=O)Nc1nc2ccccc2[nH]1` (stereo not given): the RP-LC retention time worked out at 713 s.
`O=C(C1CCCO1)N1CCC(OCc2nc(-c3cccnc3)no2)CC1` (stereo not given): the RP-LC retention time was determined as 636 s.
`COc1ccccc1CN1CCN(C(=O)C2CCc3nc(N4CCCCC4)ncc3C2)CC1` (stereo not given) displayed an RP-LC retention time of 623 s.
`CCOC(=O)c1c(C)[nH]c(CCC(=O)NC2CCCC2)c1C` gave an RP-LC retention time of 780 s.
Consider `CC1(C)CC(=O)c2cn(-c3ccccc3)c(=O)c(C(=O)Nc3ccccc3)c2C1`, for which the RP-LC retention time came to 803 s.
`COC[C@@H]1CN(C(=O)c2occc2C)C[C@H]1c1nc(C2CC2)no1` came in with an RP-LC retention time of 816 s.
On to `Cc1ccc(Nc2c(-c3cccc(Cl)c3)nc3ccc(C)cn23)cc1`, for which the RP-LC retention time is 804 s.
The figure for `Cc1cccc(/C=C/c2ccccc2)n1` is 664 s; for `Cc1nc(COc2ccccc2)sc1C(=O)N1CCC(C(N)=O)CC1` it is 925 s.
The same measure for `Fc1ccc(-c2nnc(Cc3nc(-c4cccc(F)c4)no3)o2)cc1`: 990 s; for `O=C(c1ccoc1)N1CCC(c2cc(-c3ccc(F)cc3)n[nH]2)CC1`: 777 s.
For the compound `Cn1c(=O)c2cc(C(=O)Nc3ccc4c(c3)OCCO4)cnc2n(-c2ccc(F)cc2)c1=O`, the RP-LC retention time was 856 s.
Consider `CC(Oc1c(Cl)cccc1Cl)C1=NCCN1` (stereo not given), for which the RP-LC retention time turned out to be 622 s.
On to `O=C(CSCc1nc2cccnc2n1C1CCCCC1)N1CCN(c2ccccn2)CC1`, for which the RP-LC retention time was 649 s.
The compound `COc1ccc(C(=O)N2CCN3CCS(=O)(=O)N(C4CC4)C(=O)C3C2)cc1` (stereo not given) gave an RP-LC retention time of 715 s.
Regarding `Cc1sc(NC(=O)c2ccc3c(c2)OCO3)nc1-c1ccc2c(c1)N(C)C(=O)CO2`, the RP-LC retention time stood at 823 s.
Take `Cc1ccc2c(Nc3cccc(C(F)(F)F)c3)c(C(=O)N3CCOCC3)cnc2n1`: the RP-LC retention time came to 573 s.
Consider `C=CCSc1nc(N)c2c(C)c(C(=O)O)sc2n1`, for which the RP-LC retention time was 708 s.
`Cc1cc(C)c(NS(=O)(=O)c2cc(-c3nc(C)cs3)sc2C)c(C)c1` gave an RP-LC retention time of 1190 s.
The compound `COc1ccc(OC)c(NC(=O)N2CCC3(CC2)Nc2ccccc2-n2cccc23)c1` gave an RP-LC retention time of 1040 s.
Take `CCOc1ccc(NC(=O)N2CCC3(CC2)NC(=O)c2ccccc2N3CC)cc1`: the RP-LC retention time was 785 s.
On to `Cc1cc(C)c(S(=O)(=O)N2CCCCC2C(=O)N2CCN(c3ccccc3F)CC2)c(C)c1` (stereo not given), for which the RP-LC retention time turned out to be 1250 s.
In the case of `O=C(Cn1c(C2CC(=O)N(C3CCCCC3)C2)nc2ccccc21)N1CCOCC1` (stereo not given), the RP-LC retention time was determined as 630 s.
In the case of `Cc1ccc(Nc2nc(-c3cc(C)c(C)cc3C)cs2)nc1`, the RP-LC retention time turned out to be 1010 s.
The same measure for `O=C(Cc1ccsc1)Nc1cccn2c(C3CCC3)nnc12`: 745 s; for `COc1ccc(-c2noc(-c3c(SC)nn(CC(=O)Nc4ccccc4)c3N)n2)cc1`: 934 s; for `CCc1noc(NC(C)=O)c1-c1ccc(OC)c(S(=O)(=O)Nc2cccc(Cl)c2C)c1`: 894 s.
The same measure for `Cc1nc2nc3c(cn2n1)C(=O)CCC3`: 593 s.
The figure for `COc1ccc(-c2nnc(-c3ccccc3)o2)cc1S(=O)(=O)N(C)C` is 840 s.
`CN1C(=O)CCc2cc(NC(=O)Cc3cccs3)ccc21`: the RP-LC retention time was 702 s.
`O=C(NCc1ccc(F)c(Cl)c1)c1sc2ncccc2c1-n1cccc1`: the RP-LC retention time was 1050 s.
`CCc1nncn1C1CCN(S(=O)(=O)c2ccc(Cl)c(C)c2)CC1` displayed an RP-LC retention time of 716 s.
`Cc1noc(C)c1-c1ccc(S(=O)(=O)Nc2ccc(F)c(Cl)c2)cc1` registered an RP-LC retention time of 969 s.
`NC(=O)c1cc(-c2ccccc2)nc2ccccc12` yielded an RP-LC retention time of 743 s.
In turn, `CCOc1ccc(-c2ccnc3c(C(=O)Nc4cc(C)cc(C)c4)cnn23)cc1` gave an RP-LC retention time of 1320 s.
`CNC(=O)N1CCCC(c2nc(CCOCC3CCCC3)no2)C1` (stereo not given) showed an RP-LC retention time of 759 s.
The same measure for `Cn1c(=O)c(N2CCC(C(=O)NCCc3ccco3)CC2)nc2ccccc21`: 794 s; for `O=C(Cc1ccc(F)cc1)N1CCN(C(=O)c2cc(-c3cccnc3)n[nH]2)CC1`: 606 s; for `Cc1nn(-c2ccc(F)cc2)c(C)c1S(=O)(=O)N1CCC(C(=O)Nc2ccccc2F)CC1`: 949 s.
In turn, `O=S(=O)(NC1CCCCC1)c1ccc(-c2nnc(C3CCCC3)o2)o1` gave an RP-LC retention time of 1020 s.
`CC(=O)Nc1ccc(CC(=O)NC(C(=O)N2CCCc3ccccc32)c2ccccc2)cc1` (stereo not given) yielded an RP-LC retention time of 803 s.
In turn, `O=C(CNC(=O)c1ccccc1)NC(C(=O)N1CCCc2ccccc21)c1ccccc1` (stereo not given) returned an RP-LC retention time of 816 s.
`O=C(Nc1ccc(F)cc1)C1CC(=O)N(CCc2c[nH]c3ccc(F)cc23)C1` (stereo not given) came in with an RP-LC retention time of 785 s.
In the case of `Cc1cc(=O)n(CC(=O)Nc2ccc(Br)cc2F)c(N2CCN(c3ccccc3)CC2)n1`, the RP-LC retention time came to 978 s.
The same measure for `Cc1c(C(=O)C(=O)N(C)Cc2ccccc2)c2ccccc2n1C`: 900 s; for `O=c1c2sccc2n(Cc2nc(-c3ccccc3)no2)c(=O)n1-c1ccccc1`: 932 s; for `CCCN(CCC)C(=O)c1cc(NC(=O)CC)cnc1N1CCNCC1`: 588 s.
On to `Cc1ccc(C(CNC(=O)c2cc(-c3ccccc3)on2)N(C)C)o1` (stereo not given), for which the RP-LC retention time was found to be 683 s.
As to `COCCC1CCN(C(=O)c2ccc3nc[nH]c3c2)CC1`, the RP-LC retention time was 572 s.
In turn, `CCOC(=O)N1CCN(C(=O)CSc2nc(=O)[nH]c3c2CCC3)CC1` registered an RP-LC retention time of 574 s.
Compound `Cc1ccc(NC(=O)Cn2cnc3nc(N4CCCC(C(=O)NC5CC5)C4)sc3c2=O)cc1F` (stereo not given) yielded an RP-LC retention time of 703 s.
As for `Cc1ccc(S(=O)(=O)[C@H]2CS(=O)(=O)C[C@@H]2N2CCN(c3ccccc3F)CC2)cc1`, the RP-LC retention time is 994 s.
`CCOc1ccc(N2C(=O)N(c3ccc(Cl)c(Cl)c3)C3CS(=O)(=O)CC32)cc1` (stereo not given) displayed an RP-LC retention time of 915 s.
Regarding `O=C(NCc1csc(C2CCCN(C(=O)c3ccc(F)cc3F)C2)n1)C1CCC1` (stereo not given), the RP-LC retention time is 699 s.
For `CNC(=O)c1cc(-c2cccc(OC)c2)nc2ccccc12`, the RP-LC retention time was 800 s.
In turn, `COCC(=O)N1CCC2(CC1)NC(=O)N(CCc1ccccc1)C2=O` yielded an RP-LC retention time of 631 s.
Compound `COc1ccc(S(=O)(=O)N2CCC(n3cnc4c(C)cccc4c3=O)CC2)cc1OC` had an RP-LC retention time of 881 s.
Consider `COc1ccc(Cn2nccc2NC(=O)c2cc(=O)c3ccc(Br)cc3o2)cc1`, for which the RP-LC retention time is 870 s.
The figure for `COc1ccc2c(c1)C1(CCN(C(=O)c3cccc(Br)c3)C1)C(=O)N2C` (stereo not given) is 845 s.
